Experiment [1] has as its target T1, Peroxisome proliferator-activated receptor alpha (Homo sapiens, UniProt Q07869).
T1 sequence (Q07869 whole entry): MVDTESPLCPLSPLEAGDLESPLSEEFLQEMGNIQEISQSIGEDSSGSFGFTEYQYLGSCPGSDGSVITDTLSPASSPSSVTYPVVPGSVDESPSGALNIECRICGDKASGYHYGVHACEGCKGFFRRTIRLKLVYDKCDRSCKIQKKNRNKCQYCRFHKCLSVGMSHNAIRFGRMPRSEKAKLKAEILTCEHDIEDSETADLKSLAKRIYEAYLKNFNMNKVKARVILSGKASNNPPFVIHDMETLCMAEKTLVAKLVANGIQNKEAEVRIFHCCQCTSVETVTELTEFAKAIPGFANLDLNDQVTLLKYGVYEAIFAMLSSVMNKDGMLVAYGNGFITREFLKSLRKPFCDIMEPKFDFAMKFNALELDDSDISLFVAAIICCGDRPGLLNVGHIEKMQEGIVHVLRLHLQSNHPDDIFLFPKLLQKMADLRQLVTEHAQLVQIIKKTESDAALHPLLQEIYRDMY
Description: Agonist potency at PPARalpha in CV1 cells by cell based transient transfection assay

In experiment [2] the target is T2, Peroxisome proliferator-activated receptor alpha (Homo sapiens) (UniProt Q07869).
T2 sequence (whole entry): T1 sequence (Q07869 whole entry)
Put plainly: Agonist potency at PPARalpha expressed in CV1 cells relative to GW-590735. In kind it is functional, cell-based. The conditions noted are these: CV-1.

The target in experiment [3] is T3, Peroxisome proliferator-activated receptor gamma (Homo sapiens, UniProt P37231).
T3 sequence (P37231 whole entry): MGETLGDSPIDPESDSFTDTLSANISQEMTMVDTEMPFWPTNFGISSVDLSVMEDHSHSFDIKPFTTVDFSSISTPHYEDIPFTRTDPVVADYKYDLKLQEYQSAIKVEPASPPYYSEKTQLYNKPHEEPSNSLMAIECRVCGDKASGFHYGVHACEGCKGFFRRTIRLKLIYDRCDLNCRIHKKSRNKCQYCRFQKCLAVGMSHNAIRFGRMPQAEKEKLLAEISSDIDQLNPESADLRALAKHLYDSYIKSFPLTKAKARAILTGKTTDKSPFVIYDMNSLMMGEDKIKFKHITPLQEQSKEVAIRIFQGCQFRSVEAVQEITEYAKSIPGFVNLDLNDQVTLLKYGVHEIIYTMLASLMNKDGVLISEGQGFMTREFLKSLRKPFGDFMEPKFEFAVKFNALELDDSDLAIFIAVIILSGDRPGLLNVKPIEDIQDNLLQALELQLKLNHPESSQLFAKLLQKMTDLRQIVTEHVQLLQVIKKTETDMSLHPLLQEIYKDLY
The class given is functional, cell-based, CV-1.
Description: Agonist potency at PPARgamma in CV1 cells by cell based transient transfection assay

The target in experiment [4] is T4, Peroxisome proliferator-activated receptor delta (Homo sapiens, UniProt Q03181).
T4 sequence (Q03181 whole entry): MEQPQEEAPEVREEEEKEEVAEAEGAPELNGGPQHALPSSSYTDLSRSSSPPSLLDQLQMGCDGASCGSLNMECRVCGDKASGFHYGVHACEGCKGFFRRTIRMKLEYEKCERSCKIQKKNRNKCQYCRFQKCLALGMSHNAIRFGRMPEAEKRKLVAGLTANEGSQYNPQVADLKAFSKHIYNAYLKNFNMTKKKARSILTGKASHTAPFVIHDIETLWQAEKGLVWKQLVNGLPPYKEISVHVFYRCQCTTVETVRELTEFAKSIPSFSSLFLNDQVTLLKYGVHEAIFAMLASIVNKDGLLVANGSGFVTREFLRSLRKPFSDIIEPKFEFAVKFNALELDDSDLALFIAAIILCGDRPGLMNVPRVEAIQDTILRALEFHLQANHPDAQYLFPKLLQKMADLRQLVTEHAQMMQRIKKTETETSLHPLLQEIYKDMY
Description: Agonist potency at PPARdelta in CV1 cells by cell based transient transfection assay

The test system of experiment [5] is Mus musculus. Put plainly: Decrease in plasma TG level in human Apo-A-I transgenic C57BL/6 mouse at 50 mg/kg. In kind it is functional. On the set-up: scale not given: the % may be the effect or the level left.
The test system of experiment [6] is Mus musculus. Put plainly: Decrease in LDL cholesterol level in human Apo-A-I transgenic C57BL/6 mouse at 50 mg/kg. In kind it is functional. On the set-up: scale not given: the % may be the effect or the level left.
The test system of experiment [7] is Mus musculus. Put plainly: Increase in HDL cholesterol level in human Apo-A-I transgenic C57BL/6 mouse at 50 mg/kg. In kind it is functional.
Experiment [8] deals with Mus musculus. Put plainly: Decrease in plasma VLDL level in human Apo-A-I transgenic C57BL/6 mouse at 50 mg/kg. In kind it is functional. On the set-up: scale not given: the % may be the effect or the level left.

Bounds are passed on as bounds.

In the case of `Cc1nc(-c2ccc(N)cc2)sc1C(=O)NCc1ccc(OC(C)(C)C(=O)O)cc1`, the EC50 (commonly the concentration giving half of the maximal effect) in experiment [1] was 5.64 µM; in experiment [3], > 10 µM; in experiment [4], > 10 µM. In experiment [2], this compound gave an Activity of 67%.
On to `Cc1cc(SCc2sc(-c3ccc(C(F)(F)F)cc3)nc2C)ccc1OCC(=O)O`, for which the Activity in experiment [2] was determined as 108%.
In the case of `Cc1nc(-c2ccc(OS(C)(=O)=O)cc2)sc1C(=O)NCc1ccc(OC(C)(C)C(=O)O)cc1`, the EC50 in experiment [1], in experiment [3] and in experiment [4] was > 10 µM throughout.
`Cc1nc(-c2ccccc2C(F)(F)F)sc1C(=O)NCc1ccc(OC(C)(C)C(=O)O)cc1`: the EC50 in experiment [1] is 0.465 µM; in experiment [3], > 25 µM; in experiment [4] it was 0.808 µM. In experiment [2], the Activity stood at 82%.
In the case of `Cc1nc(-c2ccc(Cl)cc2)sc1C(=O)NCc1ccc(OC(C)(C)C(=O)O)cc1`, the concentration for a half-maximal effect (EC50) in experiment [1] is 0.01 µM; in experiment [3] it was > 10 µM. This compound also came in with an Activity in experiment [2] of 94%.
In the case of `Cc1nc(-c2ccc(F)cc2)sc1C(=O)NCc1ccc(OC(C)(C)C(=O)O)cc1`, the EC50 in experiment [1] was 0.04 µM; in experiment [3], > 10 µM; in experiment [4], > 10 µM. For the same compound, the Activity in experiment [2] was 118%.
As for `Cc1nc(C(=O)NCc2ccc(OC(C)(C)C(=O)O)cc2)c(C)s1`, the results for the EC50 in experiment [1], in experiment [3] and in experiment [4] were 1.89 µM, > 10 µM and 0.66 µM, respectively. Further, in experiment [2], the Activity amounted to 171%.
As to `CC(C)OC(=O)C(C)(C)Oc1ccc(C(=O)c2ccc(Cl)cc2)cc1` [FENOFIBRATE], the Activity is on record as 43% with Mus musculus [5], 78% with Mus musculus [6], 26% in the experiment with Mus musculus [7] and 64% in the experiment with Mus musculus [8].
Regarding `Cc1nc(-c2ccc(C(F)(F)F)cc2)sc1C(=O)Nc1ccc(OC(C)(C)C(=O)O)cc1`, the EC50 in experiment [1] was 9.5 µM; in experiment [3], > 10 µM; in experiment [4] it was > 10 µM. Moreover, the Activity in experiment [2] turned out to be 69%.
On to `Cc1cc(CCc2sc(-c3ccc(C(F)(F)F)cc3)nc2C)ccc1OCC(=O)O`, for which the EC50 in experiment [1] is 2 µM; in experiment [3] it was 10 µM; in experiment [4], 0.004 µM. The compound further came in with an Activity in experiment [2] of 85%.
For `Cc1nc(-c2ccc(C(F)(F)F)cc2)sc1CCc1ccc(OC(C)(C)C(=O)O)cc1`, in that order: 0.21 µM, 1.87 µM, 0.02 µM and 138%.
In the case of `Cc1nc(-c2ccc(C(C)(C)C)cc2)sc1C(=O)NCc1ccc(OC(C)(C)C(=O)O)cc1`, the Activity in experiment [2] came to 66%. Besides, the values for the EC50 in experiment [3] and in experiment [4] were 0.86 µM and > 10 µM, respectively.
The compound `Cc1nc(-c2ccc(OC(F)(F)F)cc2)sc1C(=O)NCc1ccc(OC(C)(C)C(=O)O)cc1` gave an Activity in experiment [2] of 116%. In experiment [3], the EC50 was > 10 µM.
For the compound `Cc1nc(-c2ccc([N+](=O)[O-])cc2)sc1C(=O)NCc1ccc(OC(C)(C)C(=O)O)cc1`, the concentration giving a half-maximal response (EC50) is 0.03 µM in experiment [1], > 10 µM in experiment [3] and > 10 µM in experiment [4]. For the same compound, the Activity in experiment [2] was determined as 111%.
Consider `COc1ccc(-c2nc(C)c(C(=O)NCc3ccc(OC(C)(C)C(=O)O)cc3)s2)cc1`, for which the EC50 in experiment [1] was 0.01 µM; in experiment [3], > 10 µM; in experiment [4], > 10 µM. In experiment [2], this compound displayed an Activity of 103%.
As for `Cc1nc(-c2ccc(C(F)(F)F)cc2)sc1CNCc1ccc(OC(C)(C)C(=O)O)cc1`, the half-maximal effective concentration (EC50) in experiment [1] was 0.07 µM; in experiment [3], > 10 µM; in experiment [4], 4.05 µM. In addition, the Activity in experiment [2] was found to be 110%.
On to `Cc1nc(-c2ccc(O)cc2)sc1C(=O)NCc1ccc(OC(C)(C)C(=O)O)cc1`, for which the EC50 in experiment [1], in experiment [3] and in experiment [4] was > 10 µM each time.
Consider `Cc1nc(-c2cccc(C(F)(F)F)c2)sc1C(=O)NCc1ccc(OC(C)(C)C(=O)O)cc1`, for which the EC50 was 0.004 µM in experiment [1], > 25 µM in experiment [3] and > 25 µM in experiment [4]. Moreover, the Activity in experiment [2] amounted to 106%.
As for `Cc1nc(-c2ccc(C(F)(F)F)cc2)sc1CNC(=O)c1ccc(OC(C)(C)C(=O)O)cc1`, the EC50 in experiment [1] is 1.32 µM; in experiment [3] it was > 10 µM; in experiment [4], 6.26 µM. This compound returned an Activity in experiment [2] of 109%.
The corresponding values for `CC(C)(Oc1ccc(CNC(=O)c2sc(-c3ccc(C(F)(F)F)cc3)nc2C(F)(F)F)cc1)C(=O)O` are 0.004 µM, 0.73 µM, 8.24 µM and 98%.
On to `Cc1nc(-c2ccc(C(F)(F)F)cc2)sc1C(=O)N(C)Cc1ccc(OC(C)(C)C(=O)O)cc1`, for which the EC50 in experiment [1] was 0.24 µM; in experiment [3] it was > 10 µM; in experiment [4], > 10 µM. Also, the Activity in experiment [2] came to 84%.
On to `Cc1nc(-c2ccc(C(F)(F)F)cc2)sc1C(=O)NCCc1ccc(OC(C)(C)C(=O)O)cc1`, for which the concentration giving a half-maximal response (EC50) in experiment [1] was 0.11 µM; in experiment [3] it was > 10 µM; in experiment [4] it was > 10 µM. In experiment [2], this compound displayed an Activity of 129%.

The record behind these values is ChEMBL document CHEMBL1141367, “Substituted 2-[(4-aminomethyl)phenoxy]-2-methylpropionic acid PPARalpha agonists. 1. Discovery of a novel series of potent HDLc raising agents” (J Med Chem, 2007).
